According to US8927761B2, “Form of hexyl-5-aminolevulinate hydrochloride and methods of using the same” (Photocure ASA, priority 2012, dated 2015):

Test: Hot stage microscopy: conversion between solid forms on heating
Format: physicochemical
Details: solid state; conversion to the new Form shown by observed change in crystal morphology
Method: Hot stage microscopy was performed using a Linkam hot stage (model FTIR 600) mounted on a Leica DM LP microscope. Sample was observed using a 20× objective. Sample was placed on a coverslip, and a second coverslip was then placed over the sample. Each sample was visually observed as the stage was heated. The hot stage was calibrated using USP melting point standards.
Characteristic data for new Form C was obtained with X-ray powder diffraction (XRPD), differential scanning calorimetry (DSC), hot stage microscopy, infrared spectroscopy (IR), Raman spectroscopy, and solid state ^13C cross polarization magic angle spinning nuclear magnetic resonance spectroscopy. The new Form is a crystalline material that melts near 99° C. […] The particle morphology is observed as rays, lathe, and/or blades. The new Form is the thermodynamically stable form above 65° C.

For `CCCCCCOC(=O)CCC(=O)CN.Cl` [Form C, hexyl 5-aminolevulinate hydrochloride], which “temperature range in which the new Form is the thermodynamically stable form” value is on record?
The value was “above 65 °C”.
